This note sets out measurements from patent US9102674B2, “Substituted naphthyridine and quinoline compounds as MAO inhibitors” (DART NEUROSCIENCE (CAYMAN) LTD., priority 2013, dated 2015).

Each structure is given as a SMILES string.

For the experiment, the target named is T1, Human recombinant MAO-B (Homo sapiens, UniProt P27338).
T1 construct: host or cells: insect cells
T1 sequence (P27338 1-520): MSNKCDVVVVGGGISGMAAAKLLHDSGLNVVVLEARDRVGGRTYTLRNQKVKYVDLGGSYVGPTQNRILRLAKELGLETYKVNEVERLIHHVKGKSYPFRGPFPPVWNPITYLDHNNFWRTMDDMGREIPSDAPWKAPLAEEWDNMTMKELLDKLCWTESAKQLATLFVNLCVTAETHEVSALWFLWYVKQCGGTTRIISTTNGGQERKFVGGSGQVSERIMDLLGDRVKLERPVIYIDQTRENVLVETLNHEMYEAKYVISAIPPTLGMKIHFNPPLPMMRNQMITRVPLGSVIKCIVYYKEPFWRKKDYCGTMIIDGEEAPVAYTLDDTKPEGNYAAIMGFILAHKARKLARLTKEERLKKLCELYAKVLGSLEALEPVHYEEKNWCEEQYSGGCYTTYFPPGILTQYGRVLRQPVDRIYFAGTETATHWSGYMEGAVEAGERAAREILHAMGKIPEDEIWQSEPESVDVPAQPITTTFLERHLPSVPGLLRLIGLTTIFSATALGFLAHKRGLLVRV
The experiment can be described thus: MAO-B enzymatic assay (fluorometric, kynuramine). The conditions noted are these: human recombinant MAO-B expressed in insect cells; kynuramine substrate; values given as bins; read-out: MAO-B (pEC50) (converted). It counts as biochemical. On the procedure: The MAO enzymatic assay was performed according to the fluorometric method described by Matsumoto and colleagues (Matsumoto et al., Clin. Biochem. 1985, 18, 126-129) with the following modifications. Human recombinant MAO-A and MAO-B expressed in insect cells were used. For both assays, test compound and/or vehicle were preincubated with purified enzyme in phosphate buffer pH 7.4 for 15 minutes at 37° C. The reaction was initiated by addition of […] kynuramine. Following a 60 minute incubation period, the reaction was terminated by the addition of 6 N NaOH. The amount of 4-hydroxyquinoline that formed was determined by spectrofluorimetrically at 325 nm/465 nm.
Results were converted to percent inhibition, and the EC50 (M) for each reaction was determined using the XLfit program from IDBS (ID Business Solutions Ltd., 2 Occam Court, Surrey Research Park, Guildford, Surrey, GU2 7QB UK). The EC50 represents the concentration of a compound where 50% of its maximal effect is observed. The pEC50 is defined as the negative logarithm of the EC50; a higher pEC50 value therefore corresponds to higher potency in the assay.
Representative compounds of the invention were evaluated in the MAO-B enzymatic assay. Typically, the compounds of the invention show MAO-B inhibitory properties at a concentration of 0.1 to 10 μM, typically at 5-100%.
As depicted in the following Table, these inhibitory properties were mirrored by pEC50 values ranging from 5 (meaning 10^−5 M or 10 μM) to greater than 7 (meaning less than 10^−7 M or 0.1 μM).
Take `OCc1cnc2cc(OCc3cc(F)cc(F)c3)ccc2c1` [Example 36, (7-((3,5-Difluorobenzyl)oxy)quinolin-3-yl)methanol]: the EC50 was below 100 nM. In the case of `CC(C)(O)c1cnc2cc(OCc3cccc(Cl)c3)ccc2c1` [Example 28, 2-(7-((3-Chlorobenzyl)oxy)quinolin-3-yl)propan-2-ol] it was below 100 nM.

With `CN(C)CCNC(=O)c1cnc2cc(OCc3cccc(Cl)c3)ccc2c1` [Example 49, 7-((3-Chlorobenzyl)oxy)-N-(2-(dimethylamino)ethyl)quinoline-3-carboxamide], the EC50 was 1000 to 10000 nM. As to `NC(=O)Cc1cnc2cc(OCc3cccc(Cl)c3)ccc2c1` [Example 55, 2-(7-((3-Chlorobenzyl)oxy)quinolin-3-yl)acetamide], the EC50 is below 100 nM. Next, `CCOC(=O)c1cnc2cc(OCc3ccc(C(F)(F)F)cc3)ccc2c1` [Example 6, Ethyl 7-((4-(trifluoromethyl)benzyl)oxy)quinoline-3-carboxylate]: 100 to 1000 nM. In the case of `CNCCNC(=O)c1cnc2cc(OCc3cccc(Cl)c3)ccc2c1` [Example 48, 7-((3-Chlorobenzyl)oxy)-N-(2-(methylamino)ethyl)quinoline-3-carboxamide] it was 100 to 1000 nM. Next, `C[C@H](O)c1cnc2cc(OCc3ccc(F)cc3)ccc2c1` [Example 45, (S)-1-(7-((4-Fluorobenzyl)oxy)quinolin-3-yl)ethanol]: below 100 nM; `CCOC(=O)c1cc2ccc(OCc3ccc(F)c(Cl)c3)cc2nc1C` [Example 23, Ethyl 7-((3-chloro-4-fluorobenzyl)oxy)-2-methylquinoline-3-carboxylate]: below 100 nM; `NCCNC(=O)c1cnc2cc(OCc3cccc(Cl)c3)ccc2c1` [Example 47, N-(2-Aminoethyl)-7-((3-chlorobenzyl)oxy)quinoline-3-carboxamide]: below 100 nM. `OCc1cnc2cc(OCc3cccc(Cl)c3)ccc2c1` [Example 35, (7-((3-Chlorobenzyl)oxy)quinolin-3-yl)methanol]: the EC50 was below 100 nM. In the case of `Cc1nc2cc(OCc3cccc(Cl)c3)ccc2cc1C(C)(C)O` [Example 32, 2-(7-((3-Chlorobenzyl)oxy)-2-methylquinolin-3-yl)propan-2-ol] it was below 100 nM. In the case of `NC(=O)c1cnc2cc(OCc3ccc(F)c(F)c3)cnc2c1` [Example 70, 7-((3,4-Difluorobenzyl)oxy)-1,5-naphthyridine-3-carboxamide] it was below 100 nM; in that of `CCOC(=O)c1cnc2cc(OCc3cccc(C(F)(F)F)c3)ccc2c1` [Example 5, Ethyl 7-((3-(trifluoromethyl)benzyl)oxy)quinoline-3-carboxylate], below 100 nM.

Regarding `NC(=O)CC1Cc2ccc(OCc3cccc(Cl)c3)cc2NC1=O` (stereo not shown) [Example 82, 2-(7-((3-Chlorobenzyl)oxy)-2-oxo-1,2,3,4-tetrahydroquinolin-3-yl)acetamide], the EC50 is below 100 nM. Take `COC(=O)c1cnc2cc(OCc3cccc(Cl)c3)ccc2c1` [Example 26, Methyl 7-((3-chlorobenzyl)oxy)quinoline-3-carboxylate]: the EC50 was below 100 nM. In the case of `Cc1nc2cc(OCc3ccc(F)c(Cl)c3)ccc2cc1C(C)(C)O` [Example 33, 2-(7-((3-Chloro-4-fluorobenzyl)oxy)-2-methylquinolin-3-yl)propan-2-ol] it was below 100 nM; in that of `CCOC(=O)c1cnc2cc(OCc3cc(F)cc(Cl)c3)ccc2c1` [Example 19, Ethyl 7-((3-chloro-5-fluorobenzyl)oxy)quinoline-3-carboxylate], below 100 nM. Next, `OCc1cnc2cc(OCc3cc(F)c(F)c(F)c3)ccc2c1` [Example 37, (7-((3,4,5-Trifluorobenzyl)oxy)quinolin-3-yl)methanol]: below 100 nM; `CCOC(=O)c1cnc2cc(OCc3ccc(F)c(Cl)c3)ccc2c1` [Example 17, Ethyl 7-((3-chloro-4-fluorobenzyl)oxy)quinoline-3-carboxylate]: below 100 nM; `OCCc1cnc2cc(OCc3cccc(Cl)c3)ccc2c1` [Example 56, 2-(7-((3-Chlorobenzyl)oxy)quinolin-3-yl)ethanol]: below 100 nM. Next, `OCc1cnc2cc(OCc3ccc(F)c(F)c3)cnc2c1` [Example 73, (7-((3,4-Difluorobenzyl)oxy)-1,5-naphthyridin-3-yl)methanol]: below 100 nM; `CC(C)(C(N)=O)c1cnc2cc(OCc3cccc(Cl)c3)ccc2c1` [Example 61, 2-(7-((3-Chlorobenzyl)oxy)quinolin-3-yl)-2-methylpropanamide]: below 100 nM. For `CC(C)(O)c1cnc2cc(OCc3cccc(Cl)c3)cnc2c1` [Example 79, 2-{7-[(3-Chlorophenyl)methoxy]-1,5-naphthyridin-3-yl}propan-2-ol], the EC50 is below 100 nM. Next, `NC(=O)c1cnc2cc(OCc3ccc(F)c(Cl)c3)cnc2c1` [Example 71, 7-[(3-Chloro-4-fluorophenyl)methoxy]-1,5-naphthyridine-3-carboxamide]: below 100 nM. In the case of `NC(=O)Cc1cnc2cc(OCc3ccc(F)c(F)c3)cnc2c1` [Example 80, 2-(7-((3,4-Difluorobenzyl)oxy)-1,5-naphthyridin-3-yl)acetamide] it was below 100 nM; in that of `CC(C)(O)c1cnc2cc(OCCc3cccc(Cl)c3)ccc2c1` [Example 39, 2-(7-(3-Chlorophenethoxy)quinolin-3-yl)propan-2-ol], 100 to 1000 nM; in that of `CC(C)(O)Cc1cnc2cc(OCc3cccc(Cl)c3)ccc2c1` [Example 63, 1-(7-((3-Chlorobenzyl)oxy)quinolin-3-yl)-2-methylpropan-2-ol], 1000 to 10000 nM. In the case of `CC(C)(O)c1cnc2cc(OCc3ccc(F)c(F)c3)cnc2c1` [Example 77, 2-{7-[(3,4-Difluorophenyl)methoxy]-1,5-naphthyridin-3-yl}propan-2-ol] it was below 100 nM; in that of `Cc1nc2cc(OCc3cccc(F)c3)ccc2cc1C(C)(C)O` [Example 34, 2-(7-((3-Fluorobenzyl)oxy)-2-methylquinolin-3-yl)propan-2-ol], below 100 nM; in that of `CCOC(=O)c1cnc2cc(OCc3cccc(F)c3)ccc2c1` [Example 4, Ethyl 7-[(3-fluorophenyl)methoxy]quinoline-3-carboxylate], below 100 nM.

For `NC(=O)c1cnc2cc(OCc3cccc(F)c3)cnc2c1` [Example 67, 7-[(3-Fluorophenyl)methoxy]-1,5-naphthyridine-3-carboxamide], the EC50 was below 100 nM. In the case of `C[C@@H](O)c1cnc2cc(OCc3ccc(F)cc3)ccc2c1` [Example 44, (R)-1-(7-((4-Fluorobenzyl)oxy)quinolin-3-yl)ethanol] it was below 100 nM; in that of `NC(=O)c1cnc2cc(OCc3cccc(Cl)c3)ccc2c1` [Example 64, 7-((3-Chlorobenzyl)oxy)quinoline-3-carboxamide], below 100 nM; in that of `Cc1nc2cc(OCc3ccc(F)cc3)ccc2cc1C(C)(C)O` [Example 31, 2-(7-((4-Fluorobenzyl)oxy)-2-methylquinolin-3-yl)propan-2-ol], below 100 nM. For the compound `CCOC(=O)c1cnc2cc(OCc3cccc(OC)c3)ccc2c1` [Example 9, Ethyl 7-((3-methoxybenzyl)oxy)quinoline-3-carboxylate], the EC50 is below 100 nM. Next, `CNC(=O)c1cnc2cc(OCc3cccc(Cl)c3)cnc2c1` [Example 72, 7-[(3-Chlorophenyl)methoxy]-N-methyl-1,5-naphthyridine-3-carboxamide]: below 100 nM; `CCOC(=O)c1cnc2cc(OCc3cccc(Cl)c3)ccc2c1` [Example 3, Ethyl 7-[(3-chlorophenyl)methoxy]quinoline-3-carboxylate]: below 100 nM; `COCc1cnc2cc(OCc3cccc(Cl)c3)ccc2c1` [Example 40, 7-((3-Chlorobenzyl)oxy)-3-(methoxymethyl)quinoline]: below 100 nM. On to `NCc1cnc2cc(OCc3cccc(Cl)c3)ccc2c1` [Example 50, (7-((3-Chlorobenzyl)oxy)quinolin-3-yl)methanamine], for which the EC50 was below 100 nM. Next, `CC(=O)c1cnc2cc(OCc3ccc(F)cc3)ccc2c1` [Example 42, 1-(7-((4-Fluorobenzyl)oxy)quinolin-3-yl)ethanone]: below 100 nM.
